# In patent US20210338782A1, “STORAGE STABLE SOMATOSTATIN-DOPAMINE CHIMERIC COMPOUNDS AND SALT FORMS THEREOF” (Cydan II, Inc., priority 2019, published 2021):
# Where a name gives a salt, the structure may show the parent alone.
# What was measured:
# FIG. 6B = assay: FIG. 6B
# Description: Table printed on a drawing sheet, FIG. 6B
# Footnotes: *N=2 with Animal 2 excluded.
# First reader's note: Each Cmax and AUC0-t cell holds the value together with its SD; the sheet prints no units for Cmax or AUC0-t.
# [1] = Thermogravimetric analysis (TGA) of TBR-760 salt forms; assay type: physicochemical; settings: between 110° C. and 200° C.
# Method: Thermogravimetric analyses (TGA) were performed on all TBR-760 salt forms to evaluate thermal stability of each salt form. Studies were performed using a TGA-Q500 thermogravimetric analyzer (TA Instruments). The weight of each compound was measured while the temperature was increased at a ramp rate of 5.0° C. per minute from 25 to 400° C. […] The weight loss may be indicative of loss of adsorbed moisture, entrained solvent or volatile impurities. Decomposition of the compound appears to start at about 234° C. (sulfate salt), 245° C. (chloride salt), 252° C. (tosylate salt), and 255° C. (mesylate salt). For the acetate salt, a further ˜5% loss of weight between 110° C. and 200° C. was observed, indicating loss of volatile acetate ions over that temperature range (FIG. 8).
# [2] = Photostability of alternative salt forms of lanreotide and TBR-760; assay type: physicochemical; settings: 1.2 million lux hours visible light or 200 watt hours/square meter UV light, versus control
# Description: (§1) In order to evaluate the light sensitivity and stability of TBR-760 chimeric peptide salts, all five salt forms were exposed to ultraviolet (UV) and visible light according to International Council for Harmonisation of Technical Requirements for Pharmaceuticals for Human Use (ICH) guideline Q1B for photostability testing. In brief, a Caron 6540-1 photostability chamber unit with separate UV and light chambers was used for the studies. Visible light exposure was 1.2 million lux hours and UV exposure was 200 watt hours/square meter.
# Photostability of lanreotide acetate, lanreotide bromide, lanreotide chloride, TBR-760 acetate, TBR-760 bromide and TBR760 chloride was tested according to the methods of Example 7. Four samples were prepared for each salt form: one control for each of the UV and visible light exposure conditions (controls isolated from light) and one sample for exposure to each of the UV and visible light conditions. For each sample, 2-5 mg of the salt was weighed into 3 mL clear serum vials and stoppered. Vials containing control samples were wrapped in aluminum foil.
# Following exposure to visible and UV light, all lanreotide and TBR-760 salts were analyzed by UPLC as described in Example 7.
# [3] = Thermostability of alternative salt forms of lanreotide and TBR-760 (UPLC); assay type: physicochemical
# Method: (§2) Each TBR-760 salt was further evaluated for thermolytic stability over time by setting up three different exposure conditions (25° C. at 60% relative humidity (RH); 40° C. at 75% RH; or 60° C. with open and closed container systems (open dish/closed dish). Approximately 50 mg of each salt form was weighed in a nitrogen-flushed glove box for use in the studies. All samples were stored at −20° C. in a good laboratory practice (GLP) freezer both before and after exposure to the indicated conditions.
# (§3) The stability of each salt form was assessed by monitoring the post-exposure drug peak purity and by evaluating the post-exposure visual appearance of the salt. The samples were removed from the exposure conditions and allowed to equilibrate to ambient conditions for 15-20 mins. An appropriate amount of each sample was weighed for analysis and dissolved in diluent (deionized water containing 0.1% TFA) to obtain a stock concentration of 1 mg/mL. The stock solution was then diluted to 0.125 mg/mL in an HPLC vial using diluent and the samples were run on a Waters Acquity UPLC system using the parameters shown in Table 4.
# We conducted thermostability studies of lanreotide acetate substantially as described in Example 6. These experiments confirmed that lanreotide acetate is […] when exposed to increasing temperature and humidity conditions over time (FIG. 45). […] (FIG. 45). This degree of thermal and humidity instability is disfavored for a pharmaceutical agent, particularly one intended for patient self-administration at home.
# To determine whether a thermostable salt form of TBR-760 could be manufactured, a salt exchange was performed as described in Example 1 to generate bromide and chloride salts of TBR-760. Lanreotide bromide and lanreotide chloride salts were also generated and assessed for thermostability to evaluate the effect of the salt form on compound stability and to compare stability of lanreotide and TBR-760 of each salt.
# UPLC assays performed as described in Example 6 were further used to determine the number of degradants—and thus the number of impurities—in each sample. Results showing the purity assessment of each sample following thermostability studies are shown in FIGS. 48A-48B (lanreotide and TBR-760 acetate salts), 49A-49B (lanreotide and TBR-760 bromide salts), and 50A-50B (lanreotide and TBR-760 chloride salts).
# [4] = Time and temperature stability of lyophilized TBR-760 salts in sealed glass vials (visual appearance, HPLC); assay type: physicochemical; settings: for salt form degraded: sealed glass vials, HPLC
# Method: Lyophilized TBR-760 salts prepared as described above were assessed for stability by visual appearance and HPLC following initial production of the salt and following incubation of the salt at 20° C., 40° C., and 60° C. for 2, 4, and 8 weeks in sealed, glass vials. Changes in visual appearance of the salt were noted by evaluating the color of the substance following each incubation condition. Purity of the salt following each incubation condition was evaluated by HPLC. The number and quantity of degradation products were determined according to the number of absorbance peaks that resulted at different retention times and the size of the peaks.
# [5] = Photostability of TBR-760 salt forms (ICH Q1B, visible and UV light), appearance and UPLC purity; assay type: physicochemical
# Description: as §1
# Samples were placed in clear, sealed vials and stored in the appropriate chamber alongside dark controls in amber colored vials wrapped in aluminum foil. Control samples were stored in sealed amber vials at −20° C. The appearance of exposed samples was examined visually before being analyzed via UPLC.
# [6] = Solid state (thermolytic) stability of TBR-760 salt forms, open container, UPLC peak purity and appearance; assay type: physicochemical
# Method: as §2, §3
# [7] = 25° C. at 60% RH, open container
# [8] = 40° C. at 75% RH, open container
# [9] = UPLC peak purity, 25° C. at 60% RH, open container
# [10] = UPLC peak purity, 40° C. at 75% RH, open container
# [11] = UPLC peak purity, 60° C., open dish
smiles,measurement,setting,value
CCCN1C[C@H](CSCC(=O)NCCCC[C@@H](NC(=O)CSC[C@@H]2C[C@@H]3c4cccc5[nH]cc(c45)C[C@H]3N(CCC)C2)C(=O)N[C@H]2CSSC[C@@H](C(=O)N[C@H](C(N)=O)[C@@H](C)O)NC(=O)[C@H](CC)NC(=O)[C@H](CCCCN)NC(=O)[C@@H](Cc3c[nH]c4ccccc34)NC(=O)[C@H](Cc3ccc(O)cc3)NC2=O)C[C@@H]2c3cccc4[nH]cc(c34)C[C@H]21 [TBR-760 Acetate*],Tmax (median in hr),FIG. 6B,24 h
CCCN1C[C@H](CSCC(=O)NCCCC[C@@H](NC(=O)CSC[C@@H]2C[C@@H]3c4cccc5[nH]cc(c45)C[C@H]3N(CCC)C2)C(=O)N[C@H]2CSSC[C@@H](C(=O)N[C@H](C(N)=O)[C@@H](C)O)NC(=O)[C@H](CC)NC(=O)[C@H](CCCCN)NC(=O)[C@@H](Cc3c[nH]c4ccccc34)NC(=O)[C@H](Cc3ccc(O)cc3)NC2=O)C[C@@H]2c3cccc4[nH]cc(c34)C[C@H]21 [TBR-760 Mesylate],Tmax (median in hr),FIG. 6B,30 h
"CCCN1C[C@H](CSCC(=O)NCCCC[C@@H](NC(=O)CSC[C@@H]2C[C@@H]3c4cccc5[nH]cc(c45)C[C@H]3N(CCC)C2)C(=O)N[C@H]2CSSC[C@@H](C(=O)N[C@H](C(N)=O)[C@@H](C)O)NC(=O)[C@H](CC)NC(=O)[C@H](CCCCN)NC(=O)[C@@H](Cc3c[nH]c4ccccc34)NC(=O)[C@H](Cc3ccc(O)cc3)NC2=O)C[C@@H]2c3cccc4[nH]cc(c34)C[C@H]21 [TBR-760 acetate, Dop2-D-Lys(Dop2)-cyclo[Cys-Tyr-D-Trp-Lys-Abu-Cys]-Thr-NH2]",TGA further loss of weight,[1],approximately 5%
same,visible appearance after exposure to visible and UV light,[2],from a white salt (control) to a yellow/brown salt
same,compound degraded,[3]; 4 weeks at 60° C. and ambient humidity,greater than 5%
same,thermostability in words,"[3]; increasing temperature and humidity (25° C./60% RH, 40° C./75% RH, 60° C.) up to 4 weeks",does not maintain stability
same,change in visual appearance,[4]; 4 weeks at 60° C.,from a white powder to a yellow powder
same,salt form degraded,[4]; 60° C. for 4 weeks,9.9%
same,salt form degraded,[4]; 60° C. for 8 weeks,more than 16%
same,"Purity, UV-exposed","[5]; UPLC, UV 200 watt hours/square meter, clear sealed vial",96.16
same,"Purity, Control","[5]; UPLC, control in sealed amber vial at -20° C.",98.35
same,"Purity, Dark Ctrl-UV","[5]; UPLC, dark control in UV chamber",98.42
same,"Purity, Dark Crtl-Light","[5]; UPLC, dark control in visible light chamber",98.34
same,"Purity, Light-exposed","[5]; UPLC, visible light 1.2 million lux hours, clear sealed vial",92.14
same,"Appearance, UV-exposed","[5]; UV 200 watt hours/square meter, clear sealed vial, listed as TBR-760 acetate salt",white to a pale yellow-brown color
same,"Appearance, Control",[5]; control in sealed amber vial at -20° C.,white
same,"Appearance, Dark Ctrl-UV","[5]; dark control in UV chamber, amber vial wrapped in aluminum foil",white
same,"Appearance, Dark Crtl-Light","[5]; dark control in visible light chamber, amber vial wrapped in aluminum foil",white
same,degradation under dark conditions,"[5]; dark controls, UPLC",does not degrade
same,"degradation upon exposure to visible or UV light, in words","[5]; visible and UV light, UPLC",degraded
same,"Appearance, Light-exposed","[5]; visible light 1.2 million lux hours, clear sealed vial, listed as TBR-760 acetate salt",white to yellow-brown
same,"Appearance, T = 2 wk",[6]; [7],White
same,"Appearance, T = 4 wk",[6]; [7],White
same,"Appearance, T = 3 d",[6]; [7],White
same,stability compared with the other salt forms,"[6]; 40° C. at 75% RH and 60° C., 2 and 4 weeks, listed as acetate salt",least stable of the salts tested
same,"Appearance, T = 2 wk",[6]; [8],White
same,"Appearance, T = 3 d",[6]; [8],White
same,"Appearance, T = 4 wk","[6]; 60° C., open dish",Pale Orange
same,"Appearance, T = 3 d","[6]; 60° C., open dish",White
same,"Purity, T = 2 wk",[6]; [9],98.16
same,"Purity, T = 4 wk",[6]; [9],98.09
same,"Purity, T = 3 d",[6]; [9],98.52
same,"Purity, T = 2 wk",[6]; [10],94.52
same,"Purity, T = 4 wk",[6]; [10],92.37
same,"Purity, T = 3 d",[6]; [10],98.4
same,"Purity, T = 2 wk",[6]; [11],89.7
same,"Purity, T = 4 wk",[6]; [11],82.32
same,"Purity, T = 3 d",[6]; [11],96.66
same,"Purity, Control","[6]; UPLC peak purity, control, stored at -20° C.",98.35
same,"Appearance, Control","[6]; control, stored at -20° C.",White
same,additional degradants in chromatogram versus control,"[6]; two weeks at 60° C., open dish, UPLC, listed as acetate salt",17
CCCN1C[C@H](CSCC(=O)NCCCC[C@@H](NC(=O)CSC[C@@H]2C[C@@H]3c4cccc5[nH]cc(c45)C[C@H]3N(CCC)C2)C(=O)N[C@H]2CSSC[C@@H](C(=O)N[C@H](C(N)=O)[C@@H](C)O)NC(=O)[C@H](CC)NC(=O)[C@H](CCCCN)NC(=O)[C@@H](Cc3c[nH]c4ccccc34)NC(=O)[C@H](Cc3ccc(O)cc3)NC2=O)C[C@@H]2c3cccc4[nH]cc(c34)C[C@H]21 [TBR-760 Tosylate],Tmax (median in hr),FIG. 6B,30 h
